Laboratory results: patent publication US9340577B2, “HLA binding motifs and peptides and their uses” (priority 1992, dated 2016)
No end group written: not given here.

How the values were obtained:
Assay in all cases: biochemical
Type in all cases: binding
[1] = target: A31 (A*3101) (Homo sapiens, UniProt P04439, A270S/D185E/E176V/E277Q/F33T/G231S/G80R/H175R/I121M/I218V/I322F/K168Q/L300P/L318F/M331R/P217A/Q94H/R138Q/T323A/T345S/T97I/V358M)
[2] = target: A*3301 (Homo sapiens, UniProt P04439, A270S/D185E/E176V/E277Q/E87N/F33T/G231S/H175R/I121M/I218V/I322F/K168Q/K210R/L300P/L318F/M331R/P217A/Q86R/Q94H/R138Q/T323A/T345S/T97I/V358M/Y195H)
[3] = target: HLA-A11 (A*1101) (Homo sapiens, UniProt P04439, A114D/D185E/E176A/F33Y/L180Q/S129P/T187R)
[4] = target: A*6801 (Homo sapiens, UniProt P04439, A269V/D185E/E176V/E277Q/E87N/F33Y/G231S/I121M/I166T/I218V/L180W/L300P/L318F/N151K/P208A/P217A/Q86R/R169H/T345S)
[5] = target: HLA-A*0201 (HLA-A2.1) (Homo sapiens, UniProt P04439, D140Y/D185E/D98H/E176V/E277Q/G131W/G231S/I119V/I121R/I166T/I218V/L300P/L318F/N151K/N90K/P208A/P217A/Q86G/Q94H/R138H/R169H/T345S)

Row | Molecule | IC50 [1] | IC50 [2] | IC50 [3] | IC50 [4] | further results
1 | GTGISYGRK [Peptide 66.0062] | > 20000 nM | > 20000 nM |  |  | 
2 | CC(C)C[C@H](NC(=O)[C@H](CCCNC(=N)N)NC(=O)[C@H](CCC(=O)O)NC(=O)[C@H](CCC(N)=O)NC(=O)[C@H](CCCNC(=N)N)NC(=O)[C@H](C)NC(=O)[C@@H](N)CCCNC(=N)N)C(=O)N[C@@H](CCC(N)=O)C(=O)N[C@@H](CCCNC(=N)N)C(=O)O [Peptide 78.0311] | 350 nM | > 20000 nM | > 20000 nM | > 20000 nM | 
3 | VQFKSECEK [Peptide 88.0419] | 2680 nM | 4770 nM | 20 nM | > 20000 nM | 
4 | VLMWKFDSR [Peptide 9017.0066] | 72 nM | 63 nM | 883 nM | 516 nM | 
5 | KTVRLIKFLY [Peptide 9017.0197] | 1300 nM | 6650 nM | 235 nM | 12000 nM | 
6 | MSFLTALKR [Peptide 1587.11] | 49 nM |  | 26 nM | 2.4 nM | 
7 | KVSEFRWYRY [Peptide 78.0053] | 11 nM | 7070 nM | 24 nM | 1910 nM | 
8 | LVYRDDFPK [Peptide 88.0280] |  |  |  | 110 nM | 
9 | VTVYDGVPVWK [Peptide 1539.09] | 18300 nM | > 20000 nM | 19 nM | 362 nM | 
10 | KQGAMLAVFK [Peptide 88.0142] | 519 nM | > 20000 nM |  | 235 nM | 
11 | GTTLEQQYNK [Peptide 78.0044] | > 20000 nM | > 20000 nM | 69 nM | 3940 nM | 
12 | ILWKDIFHR [Peptide 9012.0201] | 6.4 nM | 4.8 nM |  | 235 nM | 
13 | QVNCKGIYY [Peptide 88.0408] | > 20000 nM | > 20000 nM | 1620 nM | > 20000 nM | 
14 | IVIKRRQQK [Peptide 9012.0206] | 712 nM | 9110 nM |  | 3300 nM | 
15 | AVDLSFFLK [Peptide 73.0184] |  | > 20000 nM |  |  | 
16 | SSLARRHMAR [Peptide 9017.0193] | 4.8 nM | 190 nM | 928 nM | 869 nM | 
17 | AQVLHLLKR [Peptide 88.0364] | 98 nM | 3780 nM |  | 19500 nM | 
18 | DFISFLSYFK [Peptide 88.0188] | 2630 nM | 5.7 nM | 30 nM | 1.5 nM | 
19 | IVYRDNNPY [Peptide 78.0292] | > 20000 nM | > 20000 nM | 18 nM |  | 
20 | AVHLCTETSK [Peptide 88.0230] |  | > 20000 nM | 87 nM | 10500 nM | 
21 | AACWRSRRK [Peptide 88.0260] |  | > 20000 nM |  |  | 
22 | AVDLYHFLK [Peptide 940-06, reference compound] |  |  |  |  | active receptor [3]: 10%
23 | KVGPGGYPRRK [Peptide 73.0336] |  | > 20000 nM |  |  | 

Row | Molecule | IC50 [1] | IC50 [2] | IC50 [3] | IC50 [4] | further results
24 | FVVYRDSIPK [Peptide 88.0026] |  |  |  | 10 nM | 
25 | ITIEKLLEK [Peptide 1587.31] |  | 11000 nM | 14 nM | 16 nM | 
26 | KQIVMFLRY [Peptide 88.0330] | 4390 nM | 6400 nM | 97 nM | 2260 nM | 
27 | RTEVYQFAFK [Peptide 78.0062] | 1690 nM | 9180 nM |  | 3310 nM | 
28 | WFYVQAIVDK [Peptide 88.0140] | > 20000 nM | > 20000 nM | 12900 nM | 19500 nM | 
29 | TLSAELPK [Peptide 1556.24] | > 20000 nM | > 20000 nM | 102 nM | > 20000 nM | 
30 | GQVDYYGLYY [Peptide 1589.02] | 5400 nM | > 20000 nM | 53 nM | > 20000 nM | 
31 | CC(C)C[C@H](NC(=O)[C@H](CCCNC(=N)N)NC(=O)[C@H](Cc1ccccc1)NC(=O)CNC(=O)[C@@H](N)Cc1ccc(O)cc1)C(=O)NCC(=O)N[C@@H](Cc1ccccc1)C(=O)N[C@@H](CC(C)C)C(=O)N[C@@H](Cc1c[nH]cn1)C(=O)O [Peptide 1556.26] | 3250 nM | 9910 nM | 19 nM |  | 
32 | TFPHAFPFDK [Peptide 88.0176] | 4960 nM | > 20000 nM |  | 200 nM | 
33 | TLTYISTSQR [Peptide 88.0211] | 688 nM | 1010 nM | 8270 nM | 56 nM | 
34 | KVGSLQYLK [Peptide 66.0057] |  | > 20000 nM |  |  | 
35 | KQSRAAKRR [Peptide 88.0325] |  | 512 nM | 18800 nM | 1120 nM | 
36 | KISEYRHYNK [Peptide 88.0110] |  | > 20000 nM |  |  | 
37 | QQLLRREVY [Peptide E6-42] |  |  |  |  | binding class for HLA-A11.2 [3]: weak affinity
38 | FAFADLTVVY [Peptide 78.0115] | > 20000 nM | > 20000 nM |  |  | 
39 | TVYAEPPR [Peptide 1556.10] | 8410 nM | 11800 nM |  | 21 nM | 
40 | SQIQYWQLIR [Peptide 88.0199] | 219 nM | 7540 nM | 84 nM |  | 
41 | RQRKIDWLIK [Peptide 9017.0247] | 95 nM | > 20000 nM |  | > 20000 nM | 
42 | EFVSFLSALK [Peptide 1587.36] |  | 17 nM |  | 22 nM | 
43 | KAGPGGYPRK [Peptide 73.0334] |  | > 20000 nM |  |  | 
44 | LALTALIKPK [Peptide 9017.0227] |  | > 20000 nM | 34 nM | 3480 nM | 
45 | WTIVYIEYR [Peptide 9017.0117] |  | 92 nM |  | 17 nM | 
46 | RQLKETELRK [Peptide 9012.0249] | > 20000 nM | 12600 nM |  | > 20000 nM | 

Row | Molecule | IC50 [1] | IC50 [2] | IC50 [3] | IC50 [4] | further results
47 | TTYAEPPK [Peptide 1556.11] | > 20000 nM | > 20000 nM |  | 320 nM | 
48 | HLVPWDQLFR [Peptide 9012.0236] | 308 nM |  |  | 21 nM | 
49 | FVSFLSALK [Peptide 1587.37] | 4370 nM |  | 8.8 nM | 13 nM | 
50 | VQLDIQSTK [Peptide 78.0301] |  | > 20000 nM | 216 nM | > 20000 nM | 
51 | TVTYSPALNK [Peptide 1556.40] | > 20000 nM | > 20000 nM |  | 165 nM | 
52 | VLEYVIKVSA |  |  |  |  | binding to HLA-A2.1 (column 3; no allele head shown for these rows) [5]: 0.0002
53 | LVFGIELJEV [Peptide 1345.04] |  |  |  |  | A*0201 [5]: 0.7650
54 | DLVGFLLL |  |  |  |  | A2.1 [5]: 0
55 | KTLGISYGRKK [Peptide 66.0090] |  | > 20000 nM |  |  | 
56 | KLPGLLSRDL |  |  |  |  | A2.1 [5]: 0
57 | IIAREGDCA |  |  |  |  | binding to HLA-A2.1 (column 3; no allele head shown for these rows) [5]: 0
58 | MLGSVVGNWQYFFPV |  |  |  |  | binding to HLA-A2.1 (column 3; no allele head shown for these rows) [5]: 0.012
59 | AVITKKVA |  |  |  |  | binding to HLA-A2.1 (column 3; no allele head shown for these rows) [5]: 0
60 | AQVLHVLKR [Peptide 88.0335] |  | 64 nM | 79 nM | 6530 nM | 
61 | PQSPQGASA |  |  |  |  | A2.1 [5]: <0.0002
62 | IMPKAGLLII |  |  |  |  | binding to HLA-A2.1 (column 3; no allele head shown for these rows) [5]: 0.0015
63 | EVVPISHLYI |  |  |  |  | binding to HLA-A2.1 (column 3; no allele head shown for these rows) [5]: <0.0002
64 | VLVTCLGLSYDGL |  |  |  |  | binding to HLA-A2.1 (column 3; no allele head shown for these rows) [5]: 0.0017
65 | VQEKYLEYG |  |  |  |  | A2.1 [5]: <0.0002
66 | SLSAYIIRV [Peptide 1577.43] |  |  |  |  | IC50 [5]: 40 nM
67 | SLFRAVITKKV |  |  |  |  | binding to HLA-A2.1 (column 3; no allele head shown for these rows) [5]: 0.0001
68 | EADPTGHSYV |  |  |  |  | binding to HLA-A2.1 (column 3; no allele head shown for these rows) [5]: 0
69 | MIAMEGGHA |  |  |  |  | binding to HLA-A2.1 (column 3; no allele head shown for these rows) [5]: 0.0005

Row | Molecule | IC50 [1] | IC50 [2] | IC50 [3] | IC50 [4] | further results
70 | 11546 (SLLPAIVEL) [Peptide 11546] |  |  |  |  | A2.1 Binding [5]: 0.19
71 | GLLGDNQI |  |  |  |  | A2.1 [5]: 0
72 | PVTKAEMLESV |  |  |  |  | binding to HLA-A2.1 (column 3; no allele head shown for these rows) [5]: 0
73 | IMPKTGFL |  |  |  |  | A2.1 [5]: 0.0001
74 | IVKETELRK [Peptide 9012.0209] | > 20000 nM | > 20000 nM |  | 1730 nM | 
75 | DPTGHSYVL |  |  |  |  | A2.1 [5]: <0.0002
76 | SLFRAVITKKVADLV |  |  |  |  | binding to HLA-A2.1 (column 3; no allele head shown for these rows) [5]: 0.0004
77 | LLIIVLAIIA |  |  |  |  | binding to HLA-A2.1 (column 3; no allele head shown for these rows) [5]: <0.0002
78 | SAFPTTINFT |  |  |  |  | binding to HLA-A2.1 (column 3; no allele head shown for these rows) [5]: 0
79 | VIFSKASSSL |  |  |  |  | A2.1 [5]: 0
80 | PVTKAEML |  |  |  |  | A2.1 [5]: 0
81 | GLVFGILIKR [Peptide 9012.0244] | 2110 nM | 2640 nM | 489 nM |  | 
82 | SLRVLAAGL |  |  |  |  | A2.1 [5]: 0.0001
83 | VITKKVADL |  |  |  |  | A2.1 [5]: <0.0003
84 | EAQQEALGLV |  |  |  |  | binding to HLA-A2.1 (column 3; no allele head shown for these rows) [5]: 0
85 | KTLGISYGRK [Peptide 66.0073] |  | > 20000 nM |  |  | 
86 | AVITKKVADLV |  |  |  |  | binding to HLA-A2.1 (column 3; no allele head shown for these rows) [5]: 0
87 | DLQQSLRVL |  |  |  |  | A2.1 [5]: 0
88 | KASESLQLV |  |  |  |  | binding to HLA-A2.1 (column 3; no allele head shown for these rows) [5]: 0.0009
89 | KLLTQDLVQEKYL |  |  |  |  | binding to HLA-A2.1 (column 3; no allele head shown for these rows) [5]: 0.0060
90 | KLLTQDLV |  |  |  |  | A2.1 [5]: 0.0004
91 | QQQMFLGTVK [Peptide 88.0219] |  | > 20000 nM | 13 nM | 1460 nM | 
92 | LQHASTSTPK [Peptide 88.0224] | 5820 nM | > 20000 nM | 20 nM |  | 
